We go through 31 molecules from patent US11453657B2 (GlaxoSmithKline Intellectual Property Development Limited, priority 2018, dated 2022).

Structures can show the parent of a compound that is named as a salt. Where two headings read alike, the source gives them in different places.

The subject of this experiment is P. falciparum infected erythrocytes. As to the kind of experiment: P. falciparum growth inhibition assay ([3H]hypoxanthine incorporation). In kind it is cell-based, Plasmodium falciparum. On the procedure:
P. falciparum Growth Inhibition Assay.
The sensitivity of P. falciparum infected erythrocytes to the compound was determined in duplicate using the [3H]hypoxanthine incorporation method with an inoculum of 0.5% parasitemia (ring stage) and 2% hematocrit. The parasites were grown in RPMI 1640, 25 mM HEPES and supplemented with 5% Albumax. Plates are incubated at 37° C., 5% CO2, 5% O2, 90% N2. After 24 h of incubation, [3H]hypoxanthine is added and plates are incubated for another 24 h. After that period, plates are harvested on a glass fiber filter using a TOMTEC Cell harvester 96. Filters are dried and melt on scintillator sheets and the bound radioactivity is quantified by use of a Wallac Microbeta Trilux (Model 1450 LS—Perkin Elmer). IC50s are determined using Grafit 7 program (Grafit program; Erithacus Software, Horley, Surrey, United Kingdom).
Each example compound was tested generally in accordance with the above-mentioned assay and the PfIC50 value for each compound is reported in the Table below and according to the following: […]

The mark [1] stands for this setting: Plasmodium falciparum, Erythrocyte, [3H]hypoxanthine incorporation, 0.5% parasitemia, 2% hematocrit, 48 h, read-out: PfIC50 Media.
The mark [2] stands for this setting: Plasmodium falciparum, Erythrocyte, hydrochloride salt, read-out: average PfIC50 of the hydrochloride salt.
Where [3] appears, read: Plasmodium falciparum, Erythrocyte, read-out: average PfIC50.
Where [4] appears, read: [3H]hypoxanthine incorporation, 0.5% parasitemia, 2% hematocrit, 48 h, read-out: PfIC50 Media.

`N[C@H](COc1ccc(C(=O)N2CC[C@H](c3ccc(F)cc3)C2)cc1)Cn1ncnn1` [Example 49, (4-((S)-2-amino-3-(2H-tetrazol-2-yl)propoxy)phenyl)((R)-3-(4-fluorophenyl)pyrrolidin-1-yl)methanone, Hydrochloride]: the IC50 was 0.1 to 0.5 µM under setting [1] and 0.31 µM under setting [2]. As to `N[C@@H](COc1ccc(C(=O)N2CC[C@H](c3ccc(Cl)cc3)C2)cc1)Cn1ncnn1` [Example 48, (4-((R)-2-amino-3-(2H-tetrazol-2-yl)propoxy)phenyl)((R)-3-(4-chlorophenyl)pyrrolidin-1-yl)methanone], the IC50 reads like this: under setting [1], less than 0.1 µM; under setting [3], no more than 0.05 µM.

As to `O=C(c1ccc(OC[C@H](O)Cn2ncnn2)cc1)N1CCC(c2ccccc2F)C1` (single isomer, unassigned) [Example 40b], the IC50 under setting [4] is 0.1 to 0.5 µM. Regarding `O=C(c1ccc(OC[C@H](O)Cn2nccn2)cc1)N1CC[C@H](c2ccc(F)cc2)C1` [Example 16, ((R)-3-(4-fluorophenyl)pyrrolidin-1-yl)(4-((R)-2-hydroxy-3-(2H-1,2,3-triazol-2-yl)propoxy)phenyl)methanone], the IC50 was less than 0.1 µM under setting [1] and no more than 0.05 µM under setting [3]. In the case of `NC(=O)c1nnn(C[C@@H](O)COc2ccc(C(=O)N3CC[C@H](c4ccc(F)cc4)C3)cc2)n1` [Example 38, 2-((R)-3-(4-((R)-3-(4-Fluorophenyl)pyrrolidine-1-carbonyl)phenoxy)-2-hydroxypropyl)-2H-tetrazole-5-carboxamide], the IC50 under setting [1] was in the range of 0.1 to 0.5 µM. As for `CC(O)(COc1ccc(C(=O)N2CC[C@H](c3ccc(F)cc3)C2)cc1)Cn1ncnn1` (single isomer, unassigned) [Example 9a], under setting [1], the IC50 lay in the range of 0.1 to 0.5 µM. As to `O=C(c1ccc(OC[C@H](O)Cn2cccn2)cc1)N1CC[C@H](c2ccc(F)cc2)C1` [Example 19, ((R)-3-(4-fluorophenyl)pyrrolidin-1-yl)(4-((R)-2-hydroxy-3-(1H-pyrazol-1-yl)propoxy)phenyl)methanone], the IC50 was less than 0.1 µM under setting [1] and no more than 0.05 µM under setting [3]. Consider `CC(O)(COc1ccc(C(=O)N2CC[C@H](c3ccc(F)cc3)C2)cc1)Cn1ncnn1` (stereo partly drawn) [Example 9b, ((R)-3-(4-Fluorophenyl)pyrrolidin-1-yl)(4-(2-hydroxy-2-methyl-3-(2H-tetrazol-2-yl)propoxy)phenyl)methanone], for which the IC50 under setting [4] fell in the range of 0.1 to 0.5 µM. Take `Cn1cc(CC(O)COc2ccc(C(=O)N3CC[C@H](c4ccc(F)cc4)C3)cc2)cn1` (mixture of isomers) [Example 37, ((R)-3-(4-Fluorophenyl)pyrrolidin-1-yl)(4-(2-hydroxy-3-(1-methyl-1H-pyrazol-4-yl)propoxy)phenyl)methanone]: the IC50 under setting [1] was in the range of 1 to 5 µM. On to `CC(COc1ccc(C(=O)N2CC[C@H](c3ccc(F)cc3)C2)cc1)Cn1cnnn1` (single isomer, unassigned) [Example 1b], for which the IC50 under setting [4] is less than 0.1 µM. As to `O=C(c1ccc(OC[C@H](O)Cn2cnnn2)cc1)N1CC[C@H](c2ccc(Cl)cc2)C1` [Example 28, ((R)-3-(4-chlorophenyl)pyrrolidin-1-yl)(4-((R)-2-hydroxy-3-(1H-tetrazol-1-yl)propoxy)phenyl)methanone], the IC50 under setting [1] was less than 0.1 µM. As for `O=C(c1ccc(OC[C@H](O)Cn2ncnn2)cc1F)N1CC[C@H](c2ccc(F)cc2)C1` [Example 27, (2-fluoro-4-((R)-2-hydroxy-3-(2H-tetrazol-2-yl)propoxy)phenyl)((R)-3-(4-fluorophenyl)pyrrolidin-1-yl)methanone], the IC50 is less than 0.1 µM under setting [1] and no more than 0.05 µM under setting [3]. Taken in the same sequence, the figures for `O=C(c1ccc(OC[C@H](O)Cn2ncnn2)cc1)N1CC[C@@H](c2ccc(F)cc2)C1` [Example 13, ((S)-3-(4-Fluorophenyl)pyrrolidin-1-yl)(4-((R)-2-hydroxy-3-(2H-tetrazol-2-yl)propoxy)phenyl)methanone] were less than 0.1 µM and 0.054 µM. `O=C(c1ccc(OC[C@H](O)Cn2ncnn2)cc1)N1CCC(c2cccc(F)c2)C1` (single isomer, unassigned) [Example 41b]: the IC50 under setting [1] lay in the range of 0.1 to 0.5 µM. For the molecule `O=C(c1ccc(OC[C@H](O)Cn2ccnn2)cc1)N1CC[C@H](c2ccc(Cl)cc2)C1` [Example 32, ((R)-3-(4-chlorophenyl)pyrrolidin-1-yl)(4-((R)-2-hydroxy-3-(1H-1,2,3-triazol-1-yl)propoxy)phenyl)methanone], the IC50 is less than 0.1 µM under setting [1] and no more than 0.05 µM under setting [3]. With `O=C(c1ccc(OC[C@H](F)Cn2ncnn2)cc1)N1CC[C@H](c2ccc(F)cc2)C1` [Example 11], the IC50 is, setting by setting: under setting [1], less than 0.1 µM; under setting [3], no more than 0.05 µM. For `O=C(c1ccc(OCC(F)(F)Cn2cnnn2)cc1)N1CC[C@H](c2ccc(F)cc2)C1` [Example 4, (R)-(4-(2,2-Difluoro-3-(1H-tetrazol-1-yl)propoxy)phenyl)(3-(4-fluorophenyl)-pyrrolidin-1-yl)methanone], the IC50 reads like this: under setting [1], less than 0.1 µM; under setting [3], no more than 0.05 µM. `Cn1ccc(CC(O)COc2ccc(C(=O)N3CC[C@H](c4ccc(F)cc4)C3)cc2)n1` (single isomer, unassigned) [Example 36a]: the IC50 under setting [1] is less than 0.1 µM.

Regarding `O=C(c1ccc(OC[C@H](O)Cn2cnnn2)cc1)N1CC[C@H](c2ccc(F)cc2)C1` [Example 5, ((R)-3-(4-Fluorophenyl)pyrrolidin-1-yl)(4-((R)-2-hydroxy-3-(1H-tetrazol-1-yl)propoxy)phenyl)methanone], the IC50 under setting [1] is less than 0.1 µM and the IC50 under setting [3] was no more than 0.05 µM. Taken in the same sequence, the figures for `O=C(c1ccc(OC[C@@H](F)Cn2ncnn2)cc1)N1CC[C@H](c2ccc(F)cc2)C1` [Example 12] were less than 0.1 µM and no more than 0.05 µM.

In the case of `N[C@@H](COc1ccc(C(=O)N2CC[C@H](c3ccc(F)cc3)C2)cc1)Cn1cccn1` [Example 55, (4-((R)-2-amino-3-(1H-pyrazol-1-yl)propoxy)phenyl)((R)-3-(4-fluorophenyl)pyrrolidin-1-yl)methanone, Hydrochloride], under setting [1], the IC50 fell in the range of 0.1 to 0.5 µM. Take `O=C(c1ccc(OC[C@H](O)Cn2cnnc2)cc1)N1CC[C@H](c2ccc(F)cc2)C1` [Example 18, ((R)-3-(4-fluorophenyl)pyrrolidin-1-yl)(4-((R)-2-hydroxy-3-(4H-1,2,4-triazol-4-yl)propoxy)phenyl)methanone]: the IC50 under setting [1] fell in the range of 1 to 5 µM. In the case of `N[C@@H](COc1ccc(C(=O)N2CC[C@H](c3ccc(F)cc3)C2)cc1)Cn1cncn1` [Example 52, (4-((R)-2-amino-3-(1H-1,2,4-triazol-1-yl)propoxy)phenyl)((R)-3-(4-fluorophenyl)pyrrolidin-1-yl)methanone, Hydrochloride], the IC50 under setting [1] was 0.1 to 0.5 µM. The same measure, in the same setting: the result for `N[C@@H](COc1ccc(C(=O)N2CC[C@H](c3ccc(F)cc3)C2)cc1)Cn1nccn1` [Example 53, (4-((R)-2-amino-3-(2H-1,2,3-triazol-2-yl)propoxy)phenyl)((R)-3-(4-fluorophenyl)pyrrolidin-1-yl)methanone, Hydrochloride] reads less than 0.1 µM; that for `N[C@@H](COc1ccc(C(=O)N2CC[C@H](c3ccc(F)cc3)C2)c(F)c1)Cn1ncnn1` [Example 56, (4-((R)-2-amino-3-(2H-tetrazol-2-yl)propoxy)-2-fluorophenyl)((R)-3-(4-fluorophenyl)pyrrolidin-1-yl)methanone, Hydrochloride], 0.1 to 0.5 µM. On to `N[C@@H](COc1ccc(C(=O)N2CC[C@H](c3ccc(F)cc3)C2)cc1)Cn1ncnn1` [Example 45, (4-((R)-2-Amino-3-(2H-tetrazol-2-yl)propoxy)phenyl)((R)-3-(4-fluorophenyl)pyrrolidin-1-yl)methanone], for which the IC50 reads like this: under setting [1], less than 0.1 µM; (Plasmodium falciparum, Erythrocyte, hydrochloride salt of the example, same assay, read-out: PfIC50 Media (uM), (HCl)) less than 0.1 µM; under setting [2], 0.03 µM; under setting [3], 0.018 µM. As for `O=C(c1ccc(OC[C@H](O)Cn2ncnn2)cc1)N1CC[C@H](c2ccc(F)cc2)C1` [Example 7, ((R)-3-(4-Fluorophenyl)pyrrolidin-1-yl)(4-((R)-2-hydroxy-3-(2H-tetrazol-2-yl)propoxy)phenyl)methanone], the IC50 under setting [1] was less than 0.1 µM and the IC50 under setting [3] is no more than 0.05 µM.

`Cc1nnn(C[C@@H](O)COc2ccc(C(=O)N3CC[C@H](c4ccc(F)cc4)C3)cc2)n1` [Example 22, ((R)-3-(4-fluorophenyl)pyrrolidin-1-yl)(4-((R)-2-hydroxy-3-(5-methyl-2H-tetrazol-2-yl)propoxy)phenyl)methanone]: the IC50 under setting [1] is less than 0.1 µM. For the molecule `Cl.N[C@H](COc1ccc(C(=O)N2CC[C@@H](c3ccc(F)cc3)C2)cc1)Cn1ncnn1` [Example 51, (4-((S)-2-amino-3-(2H-tetrazol-2-yl)propoxy)phenyl)((S)-3-(4-fluorophenyl)pyrrolidin-1-yl)methanone, Hydrochloride], under setting [2], the IC50 is greater than 5 µM.

In the case of `COc1ccc(C2CCN(C(=O)c3ccc(OC[C@H](O)Cn4ncnn4)cc3)C2)cc1` (single isomer, unassigned) [Example 44b], under setting [4], the IC50 lay in the range of 0.5 to 1 µM. `O=C(c1ccc(OC[C@@H](O)Cn2cnnn2)cc1)N1CC[C@H](c2ccc(F)cc2)C1` [Example 6, ((R)-3-(4-Fluorophenyl)pyrrolidin-1-yl)(4-((S)-2-hydroxy-3-(1H-tetrazol-1-yl)propoxy)phenyl)methanone]: the IC50 under setting [1] fell in the range of 0.1 to 0.5 µM.
